One series has as its system HEK293T cells. As to conditions: Table 16, IAJDs marked a (Zhang et al., J. Am. Chem. Soc. 2021); HEK 293T cells, 125 ng/well, n=3; cited from earlier work.
A short description of series [1]: Serum stability of DNPs, dimensions in 1% fetal bovine serum by DLS. Type of series: physicochemical. As to the method:
Sample preparation: injected 25 μL ethanol stock solution of IAJD125/155 (80 mg/mL) into the mixture of 462.5 μL acetate buffer (10 mM, pH 4.0) and 12.5 μL Luc-mRNA (4.0 mg/mL in water), followed by vortex for 5 seconds.
Final composition of DNP solution: IAJD125/155 (4.0 mg/mL)+Luc-mRNA (0.1 mg/mL) in 500 μL acetate buffer. The dimension of assemblies in solution was checked by DLS.
DNPs in 1% Serum: Serum (5.5 μL)+[500 μL solution of IAJD (4.0 mg/mL) and Luc-mRNA (0.1 mg/mL].

Series [2] can be described thus: Stability of DNPs by DLS after storage at 5° C. The format is physicochemical. Also on record: key: Excellent: the original sizes and distribution remains almost the same after storage; Good: the original relatively big sizes became smaller or broad size distribution became narrower; Not stable: the original relatively big sizes or broad size distribution remained almost the similar level, or the original relatively small sizes became bigger or narrow size distribution became broader. As to conditions: storage time 2 days; CIAJD 4.0 mg/mL; CLuc-mRNA 0.1 mg/mL; acetate buffer pH 4.0. As to the method:
The stability of the DNPs as assayed by DLS. All the samples are prepared in acetate buffer. The stabilities of the constructs were ranked: Excellent (in bold)—the original sizes and distribution remains almost the same after storage; Good—the original relatively big sizes became smaller or broad size distribution became narrower; Not stable—the original relatively big sizes or broad size distribution remained almost the similar level, or the original relatively small sizes became bigger or narrow size distribution became broader.

Setting [3] is: DNPs in acetate buffer (pH 4.0), no serum, IAJD 4.0 mg/mL + Luc-mRNA 0.1 mg/mL.

For `CCCCCCCCCCCCOc1cc(COC(=O)CCCN2CCN(CCO)CC2)cc(OCCCCCCCCCCCC)c1` [IAJD 71, 3,5-Bis(dodecyloxy)benzyl 4-(4-(2-hydroxyethyl)piperazin-1-yl)butanoate], the Luminescence in the series with HEK293T cells was 473,548.
For `CCCCCCCCCCCCCCCCCCOc1cc(COC(=O)CCCN2CCN(C)CC2)cc(OCCCCCCCCCCC)c1` [IAJD 81, 3-(Octadecyloxy)-5-(undecyloxy)benzyl 4-(4-methylpiperazin-1-yl)butanoate], the Luminescence in the series on HEK293T cells is given as 206,161.
Regarding `CCCCCCCCCCCCCCCCOc1cc(COC(=O)CCCN2CCN(C)CC2)cc(OCCCCCCCCCCC)c1` [IAJD 86, 3-(Hexadecyloxy)-5-(undecyloxy)benzyl 4-(4-methylpiperazin-1-yl)butanoate], the Luminescence in the series with HEK293T cells is recorded as 47,066.
Regarding `CCCCCCCCCCCCCCOc1cc(COC(=O)CCCN2CCN(C)CC2)cc(OCCCCCCCCCCC)c1` [IAJD 105, 3-(Tetradecyloxy)-5-(undecyloxy)benzyl 4-(4-methylpiperazin-1-yl)butanoate], in the series on HEK293T cells, the Luminescence is 85.
`CCCCCCCCCCCCCCCCOc1cc(COC(=O)CCCN2CCN(C)CC2)cc(OCCCCCCCCCCCC)c1` [IAJD 106, 3-(Dodecyloxy)-5-(hexadecyloxy)benzyl 4-(4-methylpiperazin-1-yl)butanoate]: the Luminescence with HEK293T cells is 309.
For the compound `CCCCCCCCCCCCCCCCCCOc1cc(COC(=O)CCCN2CCN(C)CC2)cc(OCCCCCCCCCCCC)c1` [IAJD 107, 3-(Dodecyloxy)-5-(octadecyloxy)benzyl 4-(4-methylpiperazin-1-yl)butanoate], the Luminescence in the series with HEK293T cells is listed as 93,745.
For `CCCCCCCCCCCCCCOc1cc(COC(=O)CCCN2CCN(CCO)CC2)cc(OCCCCCCCCCCC)c1` [IAJD 125, 3-(Tetradecyloxy)-5-(undecyloxy)benzyl 4-(4-(2-hydroxyethyl)piperazin-1-yl)butanoate], the PDI was 0.234 in series [1] (DNPs in 1% Serum, t = 0 min); 0.290 in series [1] (DNPs in 1% Serum, t = 10 min); 0.303 in series [1] (DNPs in 1% Serum, t = 20 min); 0.256 in series [1] (DNPs in 1% Serum, t = 30 min); 0.284 in series [1] (DNPs in 1% Serum, t = 40 min); 0.339 in series [1] (DNPs in 1% Serum, t = 50 min). Further, the PDI in series [1] (DNPs in 1% Serum, t = 60 min) was 0.258; in series [1] (setting [3]), 0.273. The “Size (nm)” value in series [1] (DNPs in 1% Serum, t = 0 min) came out at 207 nm; in series [1] (DNPs in 1% Serum, t = 10 min) it was 206 nm; in series [1] (DNPs in 1% Serum, t = 20 min), 199 nm; in series [1] (DNPs in 1% Serum, t = 30 min), 197 nm; in series [1] (DNPs in 1% Serum, t = 40 min), 200 nm; in series [1] (DNPs in 1% Serum, t = 50 min), 190 nm. Further, the “Size (nm)” value in series [1] (DNPs in 1% Serum, t = 60 min) amounted to 194 nm; in series [1] (setting [3]) it was 196 nm.
As for `CCCCCCCCCCCOc1cc(COC(=O)c2cc(OCCOCCOCCCC(=O)CCCN3CCCCC3)c(OCCOCCOCCOCc3ccccc3)c(OCCOCCOCCOC(=O)CCCN3CCCCC3)c2)cc(OCC(CC)CCCC)c1` (stereo not drawn) [IAJD 155], the PDI was 0.186 in series [1] (DNPs in 1% Serum, t = 0 min); 0.171 in series [1] (DNPs in 1% Serum, t = 10 min); 0.186 in series [1] (DNPs in 1% Serum, t = 20 min); 0.173 in series [1] (DNPs in 1% Serum, t = 30 min); 0.161 in series [1] (DNPs in 1% Serum, t = 40 min); 0.174 in series [1] (DNPs in 1% Serum, t = 50 min). In addition, the PDI was 0.149 in series [1] (DNPs in 1% Serum, t = 60 min) and 0.256 in series [1] (setting [3]). Also, the “Size (nm)” value is on record as 93 nm in series [1] (DNPs in 1% Serum, t = 0 min); 101 nm in series [1] (DNPs in 1% Serum, t = 10 min); 105 nm in series [1] (DNPs in 1% Serum, t = 20 min); 107 nm in series [1] (DNPs in 1% Serum, t = 30 min); 108 nm in series [1] (DNPs in 1% Serum, t = 40 min); 111 nm in series [1] (DNPs in 1% Serum, t = 50 min). Further, the “Size (nm)” value is 108 nm in series [1] (DNPs in 1% Serum, t = 60 min) and 83 nm in series [1] (setting [3]).
Take “Diheptyl 5,5′-((5-(((4-(4-methylpiperazin-1-yl)butanoyl)oxy)methyl)-1,3-phenylene)bis(oxy)) dipentanoate [IAJD 85]”: the Ranking of stability entry in series [2] is given as “Excellent”.

Values taken from patent US20240252677A1, “ONE-COMPONENT DELIVERY SYSTEM FOR NUCLEIC ACIDS” (The Trustees of the University of Pennsylvania, priority 2021, published 2024).
